# Experimental data taken from ChEMBL document CHEMBL1146150, “Synthesis and antibacterial activity of novel neamine derivatives” (2006).
# Tested on: Staphylococcus aureus
# Assay: Antibacterial activity against Staphylococcus aureus RN4220 by twofold agar dilution method
# Type: functional
row,Compound,MIC
1,NCCCNC(=O)O[C@@H]1[C@@H](O)[C@H](O[C@H]2O[C@H](CN)CC[C@H]2N)[C@@H](N)C[C@H]1NC(=O)[C@@H](O)CCN,16 µg/mL
2,NCCNC(=O)O[C@@H]1[C@@H](O)[C@H](O[C@H]2O[C@H](CN)CC[C@H]2N)[C@@H](N)C[C@H]1NC(=O)[C@@H](O)CCN,8 µg/mL
3,NCCNC(=O)O[C@@H]1[C@@H](O)[C@H](NC(=O)[C@@H](O)CCN)C[C@H](N)[C@H]1O[C@H]1O[C@H](CN)CC[C@H]1N,2 µg/mL
4,NCCCNC(=O)O[C@@H]1[C@@H](O)[C@H](NC(=O)[C@@H](O)CCN)C[C@H](N)[C@H]1O[C@H]1O[C@H](CN)CC[C@H]1N,16 µg/mL

# Tested on: Staphylococcus aureus
# Assay: Antibacterial activity against gentamycin and arbekacin-resistant Staphylococcus aureus MF490 expressing AAD(4'), AAC(6')-APH(2'') enzymes by twofold agar dilution method
# Type: functional
row,Compound,MIC
1,NCCCNC(=O)O[C@@H]1[C@@H](O)[C@H](O[C@H]2O[C@H](CN)CC[C@H]2N)[C@@H](N)C[C@H]1NC(=O)[C@@H](O)CCN,64 µg/mL
2,NCCNC(=O)O[C@@H]1[C@@H](O)[C@H](O[C@H]2O[C@H](CN)CC[C@H]2N)[C@@H](N)C[C@H]1NC(=O)[C@@H](O)CCN,32 µg/mL
3,NCCNC(=O)O[C@@H]1[C@@H](O)[C@H](NC(=O)[C@@H](O)CCN)C[C@H](N)[C@H]1O[C@H]1O[C@H](CN)CC[C@H]1N,8 µg/mL
4,NCCCNC(=O)O[C@@H]1[C@@H](O)[C@H](NC(=O)[C@@H](O)CCN)C[C@H](N)[C@H]1O[C@H]1O[C@H](CN)CC[C@H]1N,128 µg/mL

# Tested on: Staphylococcus aureus
# Assay: Antibacterial activity against Staphylococcus aureus RN4220/pCR1948 expressing AAC(6')-APH(2'') enzyme by twofold agar dilution method
# Type: functional
row,Compound,MIC
1,NCCCNC(=O)O[C@@H]1[C@@H](O)[C@H](O[C@H]2O[C@H](CN)CC[C@H]2N)[C@@H](N)C[C@H]1NC(=O)[C@@H](O)CCN,16 µg/mL
2,NCCNC(=O)O[C@@H]1[C@@H](O)[C@H](O[C@H]2O[C@H](CN)CC[C@H]2N)[C@@H](N)C[C@H]1NC(=O)[C@@H](O)CCN,8 µg/mL
3,NCCNC(=O)O[C@@H]1[C@@H](O)[C@H](NC(=O)[C@@H](O)CCN)C[C@H](N)[C@H]1O[C@H]1O[C@H](CN)CC[C@H]1N,2 µg/mL
4,NCCCNC(=O)O[C@@H]1[C@@H](O)[C@H](NC(=O)[C@@H](O)CCN)C[C@H](N)[C@H]1O[C@H]1O[C@H](CN)CC[C@H]1N,16 µg/mL

# Tested on: Pseudomonas aeruginosa
# Assay: Antibacterial activity against Pseudomonas aeruginosa GN3054 expressing AAC(3)-I by twofold agar dilution method
# Type: functional
row,Compound,MIC
1,NCCCNC(=O)O[C@@H]1[C@@H](O)[C@H](O[C@H]2O[C@H](CN)CC[C@H]2N)[C@@H](N)C[C@H]1NC(=O)[C@@H](O)CCN,128 µg/mL
2,NCCNC(=O)O[C@@H]1[C@@H](O)[C@H](O[C@H]2O[C@H](CN)CC[C@H]2N)[C@@H](N)C[C@H]1NC(=O)[C@@H](O)CCN,> 32 µg/mL
3,NCCNC(=O)O[C@@H]1[C@@H](O)[C@H](NC(=O)[C@@H](O)CCN)C[C@H](N)[C@H]1O[C@H]1O[C@H](CN)CC[C@H]1N,16 µg/mL
4,NCCCNC(=O)O[C@@H]1[C@@H](O)[C@H](NC(=O)[C@@H](O)CCN)C[C@H](N)[C@H]1O[C@H]1O[C@H](CN)CC[C@H]1N,64 µg/mL

# Tested on: Staphylococcus aureus
# Assay: Antibacterial activity against Staphylococcus aureus RN4220/pMS520 expressing AAD(4')-I enzyme by twofold agar dilution method
# Type: functional
row,Compound,MIC
1,NCCCNC(=O)O[C@@H]1[C@@H](O)[C@H](O[C@H]2O[C@H](CN)CC[C@H]2N)[C@@H](N)C[C@H]1NC(=O)[C@@H](O)CCN,16 µg/mL
2,NCCNC(=O)O[C@@H]1[C@@H](O)[C@H](O[C@H]2O[C@H](CN)CC[C@H]2N)[C@@H](N)C[C@H]1NC(=O)[C@@H](O)CCN,8 µg/mL
3,NCCNC(=O)O[C@@H]1[C@@H](O)[C@H](NC(=O)[C@@H](O)CCN)C[C@H](N)[C@H]1O[C@H]1O[C@H](CN)CC[C@H]1N,2 µg/mL
4,NCCCNC(=O)O[C@@H]1[C@@H](O)[C@H](NC(=O)[C@@H](O)CCN)C[C@H](N)[C@H]1O[C@H]1O[C@H](CN)CC[C@H]1N,16 µg/mL

# Tested on: Pseudomonas aeruginosa
# Assay: Antibacterial activity against Pseudomonas aeruginosa PAO1 by twofold agar dilution method
# Type: functional
row,Compound,MIC
1,NCCCNC(=O)O[C@@H]1[C@@H](O)[C@H](O[C@H]2O[C@H](CN)CC[C@H]2N)[C@@H](N)C[C@H]1NC(=O)[C@@H](O)CCN,32 µg/mL
2,NCCNC(=O)O[C@@H]1[C@@H](O)[C@H](O[C@H]2O[C@H](CN)CC[C@H]2N)[C@@H](N)C[C@H]1NC(=O)[C@@H](O)CCN,> 32 µg/mL
3,NCCNC(=O)O[C@@H]1[C@@H](O)[C@H](NC(=O)[C@@H](O)CCN)C[C@H](N)[C@H]1O[C@H]1O[C@H](CN)CC[C@H]1N,8 µg/mL
4,NCCCNC(=O)O[C@@H]1[C@@H](O)[C@H](NC(=O)[C@@H](O)CCN)C[C@H](N)[C@H]1O[C@H]1O[C@H](CN)CC[C@H]1N,32 µg/mL

# Tested on: Pseudomonas aeruginosa
# Assay: Antibacterial activity against Pseudomonas aeruginosa GN4925 expressing AAC(6')-Ib by twofold agar dilution method
# Type: functional
row,Compound,MIC
1,NCCCNC(=O)O[C@@H]1[C@@H](O)[C@H](O[C@H]2O[C@H](CN)CC[C@H]2N)[C@@H](N)C[C@H]1NC(=O)[C@@H](O)CCN,128 µg/mL
2,NCCNC(=O)O[C@@H]1[C@@H](O)[C@H](O[C@H]2O[C@H](CN)CC[C@H]2N)[C@@H](N)C[C@H]1NC(=O)[C@@H](O)CCN,> 32 µg/mL
3,NCCNC(=O)O[C@@H]1[C@@H](O)[C@H](NC(=O)[C@@H](O)CCN)C[C@H](N)[C@H]1O[C@H]1O[C@H](CN)CC[C@H]1N,8 µg/mL
4,NCCCNC(=O)O[C@@H]1[C@@H](O)[C@H](NC(=O)[C@@H](O)CCN)C[C@H](N)[C@H]1O[C@H]1O[C@H](CN)CC[C@H]1N,128 µg/mL

# Tested on: Escherichia coli
# Assay: Antibacterial activity against Escherichia coli NIH JC2 by twofold agar dilution method
# Type: functional
row,Compound,MIC
1,NCCCNC(=O)O[C@@H]1[C@@H](O)[C@H](O[C@H]2O[C@H](CN)CC[C@H]2N)[C@@H](N)C[C@H]1NC(=O)[C@@H](O)CCN,64 µg/mL
2,NCCNC(=O)O[C@@H]1[C@@H](O)[C@H](O[C@H]2O[C@H](CN)CC[C@H]2N)[C@@H](N)C[C@H]1NC(=O)[C@@H](O)CCN,32 µg/mL
3,NCCNC(=O)O[C@@H]1[C@@H](O)[C@H](NC(=O)[C@@H](O)CCN)C[C@H](N)[C@H]1O[C@H]1O[C@H](CN)CC[C@H]1N,8 µg/mL
4,NCCCNC(=O)O[C@@H]1[C@@H](O)[C@H](NC(=O)[C@@H](O)CCN)C[C@H](N)[C@H]1O[C@H]1O[C@H](CN)CC[C@H]1N,32 µg/mL

# Tested on: Staphylococcus aureus
# Assay: Antibacterial activity against gentamycin and arbekacin-resistant Staphylococcus aureus RN4220/pMF490 expressing AAC(6')-APH(2'') enzyme by twofold agar dilution method
# Type: functional
row,Compound,MIC
1,NCCCNC(=O)O[C@@H]1[C@@H](O)[C@H](O[C@H]2O[C@H](CN)CC[C@H]2N)[C@@H](N)C[C@H]1NC(=O)[C@@H](O)CCN,16 µg/mL
2,NCCNC(=O)O[C@@H]1[C@@H](O)[C@H](O[C@H]2O[C@H](CN)CC[C@H]2N)[C@@H](N)C[C@H]1NC(=O)[C@@H](O)CCN,16 µg/mL
3,NCCNC(=O)O[C@@H]1[C@@H](O)[C@H](NC(=O)[C@@H](O)CCN)C[C@H](N)[C@H]1O[C@H]1O[C@H](CN)CC[C@H]1N,2 µg/mL
4,NCCCNC(=O)O[C@@H]1[C@@H](O)[C@H](NC(=O)[C@@H](O)CCN)C[C@H](N)[C@H]1O[C@H]1O[C@H](CN)CC[C@H]1N,32 µg/mL
